From ChEMBL document CHEMBL6182925 (J Med Chem, 2025)
Converted amounts (≈) assume the structure as drawn. “And” between values parts separate entries of the source, which are not always exact repeats. Equal values may be shown once. The source made the active and inactive calls. The rule behind the calls is not given here.

What was measured:
[1] = Half life in male Sprague-Dawley rat at 3 mg/kg, iv; assay type: ADME, organism-based; details: in vivo
Homo sapiens [2] = species: Homo sapiens; assay: Inhibition of c-MET D1228 mutant (unknown origin) at 100 nM in presence of ATP by HotSpot Kinome Selectivity analysis
BaF3 [3] = test system: BaF3
[4] = target: Hepatocyte growth factor receptor (Homo sapiens, UniProt P08581); assay: Inhibition of N-terminal GST-tagged wild-type human c-MET (956 to 1390 residues) extracted from baculovirus infected Sf21 cells using 5-FAM-KKKKEEIYFFF-CONH2 as substrate preincubated for 30 mins followed by ATP addition measured after 60 mins by fluorescence-based microfluidic mobility shift assay
Sequence of Hepatocyte growth factor receptor (P08581 whole entry, the tested form may be a part): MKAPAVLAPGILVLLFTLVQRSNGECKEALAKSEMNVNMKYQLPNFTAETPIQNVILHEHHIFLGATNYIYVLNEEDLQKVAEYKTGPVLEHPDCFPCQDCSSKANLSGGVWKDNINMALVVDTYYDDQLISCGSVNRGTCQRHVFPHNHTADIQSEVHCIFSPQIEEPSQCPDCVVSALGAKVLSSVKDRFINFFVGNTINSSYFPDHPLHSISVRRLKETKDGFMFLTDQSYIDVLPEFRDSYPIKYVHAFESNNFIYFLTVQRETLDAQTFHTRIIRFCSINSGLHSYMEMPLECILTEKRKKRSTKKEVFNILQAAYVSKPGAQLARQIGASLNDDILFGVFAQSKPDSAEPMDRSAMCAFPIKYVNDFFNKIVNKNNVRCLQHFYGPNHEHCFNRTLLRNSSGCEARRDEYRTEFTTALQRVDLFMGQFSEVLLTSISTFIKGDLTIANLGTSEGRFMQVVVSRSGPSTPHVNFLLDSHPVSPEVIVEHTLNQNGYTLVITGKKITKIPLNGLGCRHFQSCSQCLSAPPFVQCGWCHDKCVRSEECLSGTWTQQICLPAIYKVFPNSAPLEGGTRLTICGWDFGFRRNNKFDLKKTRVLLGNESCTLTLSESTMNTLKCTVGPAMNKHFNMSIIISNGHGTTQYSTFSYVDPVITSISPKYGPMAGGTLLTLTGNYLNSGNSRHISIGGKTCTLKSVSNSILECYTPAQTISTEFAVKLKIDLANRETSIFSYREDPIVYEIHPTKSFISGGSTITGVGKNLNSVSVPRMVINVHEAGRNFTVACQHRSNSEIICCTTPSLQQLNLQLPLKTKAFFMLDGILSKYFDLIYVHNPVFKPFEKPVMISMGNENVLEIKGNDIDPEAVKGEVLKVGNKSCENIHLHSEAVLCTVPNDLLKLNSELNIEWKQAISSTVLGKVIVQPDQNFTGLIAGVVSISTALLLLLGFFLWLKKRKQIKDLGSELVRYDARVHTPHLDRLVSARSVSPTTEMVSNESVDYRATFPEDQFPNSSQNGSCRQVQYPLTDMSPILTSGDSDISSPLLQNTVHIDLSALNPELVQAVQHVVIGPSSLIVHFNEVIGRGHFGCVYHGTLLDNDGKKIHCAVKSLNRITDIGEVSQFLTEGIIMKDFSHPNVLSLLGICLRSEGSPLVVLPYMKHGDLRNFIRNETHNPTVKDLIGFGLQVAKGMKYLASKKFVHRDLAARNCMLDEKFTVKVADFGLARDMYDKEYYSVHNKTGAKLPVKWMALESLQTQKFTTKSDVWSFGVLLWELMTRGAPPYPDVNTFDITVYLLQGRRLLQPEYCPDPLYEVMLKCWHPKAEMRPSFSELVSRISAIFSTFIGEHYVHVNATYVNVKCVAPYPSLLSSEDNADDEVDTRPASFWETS

Mus musculus [5] = assay: In vivo inhibition of MET phosphorylation in human EBC-1 cells xenografted in athymic BALB/c nude mouse administered orally measured after 1 hr post-dose; assay type: functional, organism-based; details: dose 2-60 mg/kg, route po
[6] = Oral bioavailability in Balb/c mouse at 10 mg/kg; assay type: ADME, organism-based; details: in vivo
Mus musculus [7] = assay: In vivo inhibition of MET phosphorylation in human EBC-1 cells xenografted in athymic BALB/c nude mouse at 20 to 60 mg/kg, po measured after 12 hrs post-dose; assay type: functional, organism-based; details: dose 20-60 mg/kg
BaF3 [8] = assay: cells; details: Mus musculus, BaF3, 72 h
[9] = Toxicity in rat assessed as drug tolerance measured for 28 days; details: in vivo, 672 h, time 28 day
[10] = Antitumor activity against human LU2503 cells xenografted in athymic BALB/c nude mouse at 20 mg/kg, po bid treated for 14 days relative to control; assay type: functional; details: LU2503, 336 h, time 14 day, read-out: TGI
Mus musculus [11] = assay: In vivo inhibition of MET phosphorylation in human LU2503 cells xenografted in athymic BALB/c nude mouse at 20 to 60 mg/kg, po measured after 12 hrs post-dose; assay type: functional, organism-based; details: dose 20-60 mg/kg
Homo sapiens [12] = species: Homo sapiens; assay: Inhibition of c-MET D1228X/Y1230X mutant (unknown origin) at 100 nM in presence of ATP by HotSpot Kinome Selectivity analysis
[13] = target: T1, Alpha-2A adrenergic receptor (Homo sapiens) (UniProt P08913); assay: Inhibition of alpha 2A adrenergic receptor (unknown origin) at 10 uM by CEREP analysis relative to control
T1 sequence (whole entry): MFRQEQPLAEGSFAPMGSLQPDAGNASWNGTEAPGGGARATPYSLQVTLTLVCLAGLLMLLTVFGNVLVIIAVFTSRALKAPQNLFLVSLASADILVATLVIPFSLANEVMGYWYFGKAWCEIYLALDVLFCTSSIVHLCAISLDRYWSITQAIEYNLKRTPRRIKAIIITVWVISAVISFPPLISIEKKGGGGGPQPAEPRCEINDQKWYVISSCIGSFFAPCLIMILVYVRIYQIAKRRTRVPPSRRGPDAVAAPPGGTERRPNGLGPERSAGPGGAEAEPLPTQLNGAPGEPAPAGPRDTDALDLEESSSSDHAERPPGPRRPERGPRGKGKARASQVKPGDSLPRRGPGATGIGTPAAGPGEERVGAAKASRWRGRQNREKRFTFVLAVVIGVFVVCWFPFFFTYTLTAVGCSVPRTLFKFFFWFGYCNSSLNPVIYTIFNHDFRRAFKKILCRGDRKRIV

hERG = hERG (Homo sapiens, UniProt Q12809); assay: Inhibition of hERG; assay type: toxicity
EBC-1 [14] = assay: Antitumor activity against human EBC-1 cells xenografted in athymic BALB/c nude mouse at 2 mg/kg, po bid treated for 21 days relative to control; assay type: functional; details: EBC-1, 504 h, time 21 day, read-out: TGI
[15] = Toxicity in athymic BALB/c nude mouse allografted with mouse BaF3 cells harboring TPR-D1228N mutant assessed as body weight loss at 2 to 60 mg/kg, po bid treated for 10 to 21 days; assay type: organism-based; details: in vivo, dose lower 2 mg/kg, time lower 10 day, dose upper 60 mg/kg, time upper 21 day
EBC-1 [16] = assay: Antitumor activity against human EBC-1 cells xenografted in athymic BALB/c nude mouse at 20 mg/kg, po bid treated for 21 days relative to control; assay type: functional; details: EBC-1, 504 h, time 21 day, read-out: TGI
BaF3 [17] = assay: cells; details: Mus musculus, BaF3, 72 h; remark: listed apart in the source
[18] = Kinetic solubility of compound at pH 2; assay type: physicochemical; details: buffer, read-out: Kinetic_solubility
BaF3 [19] = assay: cells; details: Mus musculus, BaF3, 72 h; remark: listed apart in the source
[20] = target: cGMP-inhibited 3',5'-cyclic phosphodiesterase 3A (Homo sapiens) (UniProt Q14432); assay: Inhibition of PDE3A (unknown origin) at 10 uM by CEREP analysis relative to control
Sequence of cGMP-inhibited 3',5'-cyclic phosphodiesterase 3A (Homo sapiens) (Q14432 whole entry): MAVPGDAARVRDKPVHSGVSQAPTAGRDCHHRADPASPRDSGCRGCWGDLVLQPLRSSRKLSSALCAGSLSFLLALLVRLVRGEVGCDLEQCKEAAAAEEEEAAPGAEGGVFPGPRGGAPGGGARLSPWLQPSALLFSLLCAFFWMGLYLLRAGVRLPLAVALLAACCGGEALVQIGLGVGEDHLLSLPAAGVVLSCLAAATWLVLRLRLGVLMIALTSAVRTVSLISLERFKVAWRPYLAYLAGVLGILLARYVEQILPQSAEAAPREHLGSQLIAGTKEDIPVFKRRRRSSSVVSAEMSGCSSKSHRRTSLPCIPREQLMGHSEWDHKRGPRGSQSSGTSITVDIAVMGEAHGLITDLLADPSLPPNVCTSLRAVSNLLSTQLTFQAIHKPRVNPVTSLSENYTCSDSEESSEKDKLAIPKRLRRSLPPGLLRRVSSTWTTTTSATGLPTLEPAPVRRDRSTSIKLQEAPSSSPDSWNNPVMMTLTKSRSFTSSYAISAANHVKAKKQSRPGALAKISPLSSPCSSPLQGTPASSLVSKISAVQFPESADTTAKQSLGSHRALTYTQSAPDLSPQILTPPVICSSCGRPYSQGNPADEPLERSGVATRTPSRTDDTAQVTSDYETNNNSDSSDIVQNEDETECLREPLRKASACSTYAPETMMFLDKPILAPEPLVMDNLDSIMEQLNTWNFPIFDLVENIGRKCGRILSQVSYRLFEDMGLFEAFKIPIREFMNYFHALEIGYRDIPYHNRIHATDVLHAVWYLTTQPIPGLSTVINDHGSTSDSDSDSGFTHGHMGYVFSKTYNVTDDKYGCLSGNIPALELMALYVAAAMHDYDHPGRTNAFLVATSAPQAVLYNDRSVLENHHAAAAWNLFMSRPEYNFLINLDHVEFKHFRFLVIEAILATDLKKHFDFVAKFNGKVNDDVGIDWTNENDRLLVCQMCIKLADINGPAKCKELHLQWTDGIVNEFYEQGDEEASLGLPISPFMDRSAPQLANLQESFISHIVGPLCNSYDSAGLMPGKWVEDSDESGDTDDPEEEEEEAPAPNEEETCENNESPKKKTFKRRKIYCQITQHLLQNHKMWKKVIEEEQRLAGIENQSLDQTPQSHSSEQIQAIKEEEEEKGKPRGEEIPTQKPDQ

BaF3 [21] = assay: Antitumor activity against mouse BaF3 cells harboring TPR-D1228N mutant cells allografted in athymic BALB/c nude mouse at 60 mg/kg, po bid treated for 10 days relative to control; assay type: functional; details: BaF3, 240 h, time 10 day, read-out: TGI
[22] = Antitumor activity against human LU2503 cells xenografted in athymic BALB/c nude mouse at 60 mg/kg, po bid treated for 14 days relative to control; assay type: functional; details: LU2503, 336 h, time 14 day, read-out: TGI
[23] = target: Macrophage-stimulating protein receptor (Homo sapiens) (UniProt Q04912); assay: Inhibition of wild-type RON (unknown origin) at 100 nM by kinome selectivity analysis relative to control
Sequence of Macrophage-stimulating protein receptor (Homo sapiens) (Q04912 25-304 limits assumed): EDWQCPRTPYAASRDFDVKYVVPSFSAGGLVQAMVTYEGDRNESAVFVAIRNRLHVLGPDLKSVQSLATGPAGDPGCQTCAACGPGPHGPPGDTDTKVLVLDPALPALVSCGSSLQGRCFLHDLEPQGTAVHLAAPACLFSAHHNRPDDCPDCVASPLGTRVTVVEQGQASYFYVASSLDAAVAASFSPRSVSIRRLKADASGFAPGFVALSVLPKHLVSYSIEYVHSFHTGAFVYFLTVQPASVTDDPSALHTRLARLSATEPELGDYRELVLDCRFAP
Sequence of Macrophage-stimulating protein receptor (Homo sapiens) (Q04912 310-1400 limits assumed): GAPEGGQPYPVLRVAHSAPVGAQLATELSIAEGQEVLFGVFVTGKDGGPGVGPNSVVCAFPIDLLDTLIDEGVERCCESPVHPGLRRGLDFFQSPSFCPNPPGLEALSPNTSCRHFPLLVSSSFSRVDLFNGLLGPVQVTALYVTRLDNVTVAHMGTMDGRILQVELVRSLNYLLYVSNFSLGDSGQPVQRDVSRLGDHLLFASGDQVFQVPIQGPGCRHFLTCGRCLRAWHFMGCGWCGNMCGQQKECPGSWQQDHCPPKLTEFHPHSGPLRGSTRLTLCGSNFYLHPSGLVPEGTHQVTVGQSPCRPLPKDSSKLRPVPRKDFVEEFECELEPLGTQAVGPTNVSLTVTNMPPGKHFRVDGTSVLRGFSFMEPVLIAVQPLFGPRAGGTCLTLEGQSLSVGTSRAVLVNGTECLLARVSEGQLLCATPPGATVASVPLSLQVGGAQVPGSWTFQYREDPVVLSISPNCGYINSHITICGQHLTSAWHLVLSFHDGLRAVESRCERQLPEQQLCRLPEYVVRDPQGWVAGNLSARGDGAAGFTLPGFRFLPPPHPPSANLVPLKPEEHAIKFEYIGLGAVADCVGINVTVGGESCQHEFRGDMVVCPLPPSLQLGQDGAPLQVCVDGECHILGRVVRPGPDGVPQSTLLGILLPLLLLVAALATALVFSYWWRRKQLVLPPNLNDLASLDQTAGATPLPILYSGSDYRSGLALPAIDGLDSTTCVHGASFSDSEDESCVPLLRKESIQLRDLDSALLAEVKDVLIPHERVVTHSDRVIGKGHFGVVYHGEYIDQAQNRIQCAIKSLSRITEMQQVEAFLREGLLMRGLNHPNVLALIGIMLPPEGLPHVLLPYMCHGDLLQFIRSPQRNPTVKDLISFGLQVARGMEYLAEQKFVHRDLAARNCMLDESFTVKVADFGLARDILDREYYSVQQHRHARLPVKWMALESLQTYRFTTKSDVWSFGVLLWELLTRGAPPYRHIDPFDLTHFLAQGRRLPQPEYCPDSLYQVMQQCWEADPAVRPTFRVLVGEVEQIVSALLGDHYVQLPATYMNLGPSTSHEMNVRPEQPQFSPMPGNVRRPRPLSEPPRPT

BaF3 [24] = assay: cells; details: Mus musculus, BaF3, 72 h; remark: listed apart in the source
BaF3 [25] = assay: Antitumor activity against mouse BaF3 cells harboring TPR-D1228N mutant cells allografted in athymic BALB/c nude mouse at 6 mg/kg, po bid treated for 10 days relative to control; assay type: functional; details: BaF3, 240 h, time 10 day, read-out: TGI
Mus musculus [26] = assay: In vivo inhibition of MET phosphorylation in human LU2503 cells xenografted in athymic BALB/c nude mouse administered orally measured after 1 hr post-dose; assay type: functional, organism-based; details: dose 2-60 mg/kg, route po
[27] = Oral bioavailability in male Sprague-Dawley rat at 10 mg/kg; assay type: ADME, organism-based; details: in vivo
AhR = AhR (Homo sapiens, UniProt P35869); assay: Induction of AhR (unknown origin) assessed as fold increase in activity at 1 uM relative to control; assay type: toxicity; details: read-out: FC
Sequence of AhR (P35869 whole entry): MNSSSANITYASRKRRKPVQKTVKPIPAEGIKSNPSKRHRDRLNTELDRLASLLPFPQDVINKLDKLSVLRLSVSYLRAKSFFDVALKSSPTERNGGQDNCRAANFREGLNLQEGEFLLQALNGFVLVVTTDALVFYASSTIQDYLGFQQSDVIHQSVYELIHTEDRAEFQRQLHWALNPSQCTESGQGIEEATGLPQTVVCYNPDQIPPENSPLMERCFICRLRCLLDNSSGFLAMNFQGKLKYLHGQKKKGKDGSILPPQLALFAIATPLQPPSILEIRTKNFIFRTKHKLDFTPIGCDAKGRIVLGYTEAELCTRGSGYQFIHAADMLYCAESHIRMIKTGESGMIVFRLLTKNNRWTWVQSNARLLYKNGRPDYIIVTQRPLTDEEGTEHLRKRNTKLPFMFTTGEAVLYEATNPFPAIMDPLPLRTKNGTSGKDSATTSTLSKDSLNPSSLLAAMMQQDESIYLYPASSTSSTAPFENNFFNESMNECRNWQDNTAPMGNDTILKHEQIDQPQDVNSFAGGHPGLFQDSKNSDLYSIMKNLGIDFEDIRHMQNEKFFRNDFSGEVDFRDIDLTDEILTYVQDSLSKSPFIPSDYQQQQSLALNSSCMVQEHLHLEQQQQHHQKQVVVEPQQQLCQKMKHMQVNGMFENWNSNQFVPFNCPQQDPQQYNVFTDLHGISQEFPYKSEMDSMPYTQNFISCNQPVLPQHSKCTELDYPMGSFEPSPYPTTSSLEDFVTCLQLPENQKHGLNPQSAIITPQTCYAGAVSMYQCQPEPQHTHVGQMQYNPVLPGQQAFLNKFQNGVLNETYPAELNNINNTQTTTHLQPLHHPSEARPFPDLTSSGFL

[28] = Oral bioavailability in male Beagle dog at 10 mg/kg; assay type: ADME, organism-based, Canis lupus familiaris; details: in vivo
EBC-1 [29] = assay: Antitumor activity against human EBC-1 cells xenografted in athymic BALB/c nude mouse at 6 mg/kg, po bid treated for 21 days relative to control; assay type: functional; details: EBC-1, 504 h, time 21 day, read-out: TGI

Q: Which results are given for `COc1cc2nccc(Oc3c(F)cc(NC(=O)c4cnccc4OC)cc3F)c2cc1O[C@@H](C)CO`?
A: half-life [1]: 4.9 h; inhibition (Homo sapiens [2]): 0%; EC50 (BaF3 [3]): 11 nM and 5.1 nM; IC50 [4]: 0.2 nM; inhibition (Mus musculus [5]): Dose-dependent-effect; bioavailability [6]: 100%; inhibition (Mus musculus [7]): Active; EC50 (BaF3 [8]): 2.5 nM; Activity [9]: Non-toxic; inhibition in vivo at 20 mg/kg [10]: 110%; inhibition (Mus musculus [11]): Active; inhibition (Homo sapiens [12]): 49%; inhibition [13]: 6%; IC20 (hERG): 10000 nM; inhibition in vivo at 2 mg/kg (EBC-1 [14]): 25%; Activity [15]: Non-toxic; inhibition in vivo at 20 mg/kg (EBC-1 [16]): 88%; EC50 (BaF3 [17]): 13 nM; solubility kinetic [18]: 288 µM (≈ 147 µg/mL); EC50 (BaF3 [19]): 9.1 nM; inhibition [20]: 16%; inhibition in vivo at 60 mg/kg (BaF3 [21]): 128%; inhibition in vivo at 60 mg/kg [22]: 113%; inhibition [23]: > 90%; EC50 (BaF3 [24]): 7.7 nM; inhibition in vivo at 6 mg/kg (BaF3 [25]): 44%; inhibition (Mus musculus [26]): Dose-dependent-effect; bioavailability [27]: 100%; fold induction at 1 µM (AhR): < 1.5; bioavailability [28]: 56%; inhibition in vivo at 6 mg/kg (EBC-1 [29]): 52%
